How the values were obtained:
[1] = tested on: HEK-Blue IL-1β cells stimulated with hIL-1β; assay: HEK293 reporter gene assay, hIL-1β as trigger; type: cell-based, human; settings: inhibitor 50uM
Experimental: (§1) We used HEK-Blue™ IL-1β cells that respond specifically to IL-1 (# hkb-il1b, InvivoGen). These cells can detect IL-1α and IL-1β, as these cytokines bind to the same receptor, IL-1R1. They express a Seap reporter gene under the control of the IFN-β minimal promoter fused to five NF-kappaB and five AP-1 binding sites. Thirty microliters (300,000 cells/ml) per well of a 384-well plate were plated overnight. Cells were then stimulated with graded concentrations of cytokines (hIL-1α or hIL-1β) in the absence or presence of canakinumab (Ilaris®, ILARI LYVI 150MG 22GLW.012, batch U003 0409)[22], anakinra (Kineret®, 100 mg/0.67 ml injectable solution, Sobi)[23], or compound (S)-2 (compounds were pre-mixed for 1 h with the cytokine prior to addition to cells) and further incubated overnight before assessment of Seap activity.

[2] = tested on: HEK-Blue IL-1β cells stimulated with hIL-1α; assay: HEK293 reporter gene assay, hIL-1α as trigger; type: cell-based, human; settings: inhibitor 50uM
Experimental: as §1

Cc1ccc2c(c1)NC(=O)[C@@]2(c1cn[nH]c1)c1cc(-c2ccc(C(=O)O)cc2C(=O)O)ccc1O [(S) 2]
reporter gene assay signal, mean (Figure 3d) ([1]; IL-1beta 3.04596 pg/ml): 0.06
reporter gene assay signal, mean (Figure 3d) ([1]; IL-1beta 6.09192 pg/ml): 0.06
reporter gene assay signal, mean (Figure 3d) ([1]; IL-1beta 12.1838 pg/ml): 0.06
reporter gene assay signal, mean (Figure 3d) ([1]; IL-1beta 24.3677 pg/ml): 0.08
reporter gene assay signal, mean (Figure 3d) ([1]; IL-1beta 48.7353 pg/ml): 0.1
reporter gene assay signal, mean (Figure 3d) ([1]; IL-1beta 97.4707 pg/ml): 0.17
reporter gene assay signal, mean (Figure 3d) ([1]; IL-1beta 194.941 pg/ml): 0.41
reporter gene assay signal, mean (Figure 3d) ([1]; IL-1beta 389.883 pg/ml): 0.84
reporter gene assay signal, mean (Figure 3d) ([1]; IL-1beta 779.766 pg/ml): 1.26
reporter gene assay signal, mean (Figure 3d) ([1]; IL-1beta 1559.53 pg/ml): 1.6
reporter gene assay signal, mean (Figure 3d) ([1]; IL-1beta 3119.06 pg/ml): 1.74
reporter gene assay signal, mean (Figure 3d) ([1]; IL-1beta 6238.12 pg/ml): 1.87
reporter gene assay signal, mean (Figure 3d) ([1]; IL-1beta 12476.2 pg/ml): 1.96
reporter gene assay signal, mean (Figure 3d) ([1]; IL-1beta 24952.5 pg/ml): 2.06
reporter gene assay signal, mean (Figure 3d) ([1]; IL-1beta 49905 pg/ml): 2.02
reporter gene assay signal, mean (Figure 3d) ([2]; IL-1alpha 3.04596 pg/ml): 0.08
reporter gene assay signal, mean (Figure 3d) ([2]; IL-1alpha 6.09192 pg/ml): 0.1
reporter gene assay signal, mean (Figure 3d) ([2]; IL-1alpha 12.1838 pg/ml): 0.15
reporter gene assay signal, mean (Figure 3d) ([2]; IL-1alpha 24.3677 pg/ml): 0.1
reporter gene assay signal, mean (Figure 3d) ([2]; IL-1alpha 48.7353 pg/ml): 0.59
reporter gene assay signal, mean (Figure 3d) ([2]; IL-1alpha 97.4707 pg/ml): 1.08
reporter gene assay signal, mean (Figure 3d) ([2]; IL-1alpha 194.941 pg/ml): 1.42
reporter gene assay signal, mean (Figure 3d) ([2]; IL-1alpha 389.883 pg/ml): 1.67
reporter gene assay signal, mean (Figure 3d) ([2]; IL-1alpha 779.766 pg/ml): 1.82
reporter gene assay signal, mean (Figure 3d) ([2]; IL-1alpha 1559.53 pg/ml): 1.88
reporter gene assay signal, mean (Figure 3d) ([2]; IL-1alpha 3119.06 pg/ml): 1.91
reporter gene assay signal, mean (Figure 3d) ([2]; IL-1alpha 6238.12 pg/ml): 1.96
reporter gene assay signal, mean (Figure 3d) ([2]; IL-1alpha 12476.2 pg/ml): 1.97
reporter gene assay signal, mean (Figure 3d) ([2]; IL-1alpha 24952.5 pg/ml): 2.03
reporter gene assay signal, mean (Figure 3d) ([2]; IL-1alpha 49905 pg/ml): 2.01

Source: publication PMC10484922, “Discovery of a selective and biologically active low-molecular weight antagonist of human interleukin-1β” (Nature Communications, 2023)
